Species on record: Rattus norvegicus
Assay: DrugMatrix - Regimen: Daily Repeat
Format: toxicity, organism-based, Sprague-Dawley
Set-up: regimen Daily Repeat, gender Male, age 6-8 weeks
Settings: in vivo, po, […], route oral GAVAGE; for ABSOLUTE BASOPHIL / ABSOLUTE EOSINOPHIL / ABSOLUTE LYMPHOCYTE / ABSOLUTE MONOCYTE / ABSOLUTE SEGMENTED NEUTROPHIL / BASOPHIL / EOSINOPHIL / ERYTHROCYTE COUNT / HEMATOCRIT / HEMOGLOBIN / LEUKOCYTE COUNT / LYMPHOCYTE / MEAN CORPUSCULAR HEMOGLOBIN / MEAN CORPUSCULAR HEMOGLOBIN CONCENTRATION / MEAN CORPUSCULAR VOLUME / MONOCYTE / NEUTROPHIL / NUCLEATED RED BLOOD CELLS / PLATELET COUNT: tissue Blood; for ALANINE AMINOTRANSFERASE / ALKALINE PHOSPHATASE / ASPARTATE AMINOTRANSFERASE / BLOOD UREA NITROGEN / CARBON DIOXIDE / CHLORIDE / CHOLESTEROL / CREATINE PHOSPHOKINASE / CREATININE / GLUCOSE / LACTATE DEHYDROGENASE / LIPASE / PHOSPHORUS / POTASSIUM / SODIUM / TOTAL BILIRUBIN / TOTAL PROTEIN / URIC ACID: tissue Plasma
[1] = 100 mg/kg, dose level Low, time 7 day
[2] = 700 mg/kg, 72 h, dose level High, time 3 day
[3] = 700 mg/kg, dose level High, time 7 day

## Cc1ccc(C)c(OCCCC(C)(C)C(=O)O)c1 [GEMFIBROZIL]
[1]
  ABSOLUTE BASOPHIL: 0 CELLS/uL
  ABSOLUTE EOSINOPHIL: 45.5 CELLS/uL
  ABSOLUTE LYMPHOCYTE: 9460.33 CELLS/uL
  ABSOLUTE MONOCYTE: 128.67 CELLS/uL
  ABSOLUTE SEGMENTED NEUTROPHIL: 965.5 CELLS/uL
  BASOPHIL: 0%
  EOSINOPHIL: 0.5%
  ERYTHROCYTE COUNT: 5.75 x10E6/uL
  HEMATOCRIT: 35.7%
  HEMOGLOBIN: 13.7 G/DL
  LEUKOCYTE COUNT: 10.6 x10E3/uL
  LYMPHOCYTE: 89.83%
  MEAN CORPUSCULAR HEMOGLOBIN: 23.82 pg
  MEAN CORPUSCULAR HEMOGLOBIN CONCENTRATION: 38.42 G/DL
  MEAN CORPUSCULAR VOLUME: 62.1 fL
  MONOCYTE: 1.17%
  NEUTROPHIL: 8.5%
  NUCLEATED RED BLOOD CELLS: 0 /100WBC
  PLATELET COUNT: 1237.17 x10E3/uL
  ALANINE AMINOTRANSFERASE: 75.17 u/L
  ALKALINE PHOSPHATASE: 388.67 u/L
  ASPARTATE AMINOTRANSFERASE: 80.67 u/L
  BLOOD UREA NITROGEN: 15.5 mg/dL
  CARBON DIOXIDE: 29.17 mmol/L
  CHLORIDE: 103.5 MEQ/L
  CHOLESTEROL: 70.33 mg/dL
  CREATINE PHOSPHOKINASE: 220 u/L
  CREATININE: 0.26 mg/dL
  GLUCOSE: 138.5 mg/dL
  LACTATE DEHYDROGENASE: 151.33 u/L
  LIPASE: 11.5 u/L
  PHOSPHORUS: 10.83 mg/dL
  POTASSIUM: 6.07 MEQ/L
  SODIUM: 145.42 MEQ/L
  TOTAL BILIRUBIN: 0.15 mg/dL
  TOTAL PROTEIN: 6.55 G/DL
  URIC ACID: 0.9 mg/dL
[2]
  ABSOLUTE BASOPHIL: 0 CELLS/uL
  ABSOLUTE EOSINOPHIL: 123.83 CELLS/uL
  ABSOLUTE LYMPHOCYTE: 14360.17 CELLS/uL
  ABSOLUTE MONOCYTE: 300 CELLS/uL
  ABSOLUTE SEGMENTED NEUTROPHIL: 899.33 CELLS/uL
  BASOPHIL: 0%
  EOSINOPHIL: 0.83%
  ERYTHROCYTE COUNT: 5.5 x10E6/uL
  HEMATOCRIT: 34.9%
  HEMOGLOBIN: 13.82 G/DL
  LEUKOCYTE COUNT: 15.68 x10E3/uL
  LYMPHOCYTE: 91.67%
  MEAN CORPUSCULAR HEMOGLOBIN: 25.13 pg
  MEAN CORPUSCULAR HEMOGLOBIN CONCENTRATION: 39.6 G/DL
  MEAN CORPUSCULAR VOLUME: 63.5 fL
  MONOCYTE: 1.83%
  NEUTROPHIL: 5.67%
  NUCLEATED RED BLOOD CELLS: 0 /100WBC
  PLATELET COUNT: 1197.17 x10E3/uL
  ALANINE AMINOTRANSFERASE: 74.67 u/L
  ALKALINE PHOSPHATASE: 606 u/L
  ASPARTATE AMINOTRANSFERASE: 80.5 u/L
  BLOOD UREA NITROGEN: 11.33 mg/dL
  CARBON DIOXIDE: 30.67 mmol/L
  CHLORIDE: 101.5 MEQ/L
  CHOLESTEROL: 61 mg/dL
  CREATINE PHOSPHOKINASE: 247.5 u/L
  CREATININE: 0.21 mg/dL
  GLUCOSE: 143.5 mg/dL
  LACTATE DEHYDROGENASE: 254.17 u/L
  LIPASE: 9.67 u/L
  PHOSPHORUS: 8.5 mg/dL
  POTASSIUM: 6.29 MEQ/L
  SODIUM: 141.78 MEQ/L
  TOTAL BILIRUBIN: 0.32 mg/dL
  TOTAL PROTEIN: 5.85 G/DL
  URIC ACID: 1.33 mg/dL
[3]
  ABSOLUTE BASOPHIL: 0 CELLS/uL
  ABSOLUTE EOSINOPHIL: 34.5 CELLS/uL
  ABSOLUTE LYMPHOCYTE: 11212.67 CELLS/uL
  ABSOLUTE MONOCYTE: 304.17 CELLS/uL
  ABSOLUTE SEGMENTED NEUTROPHIL: 1732 CELLS/uL
  BASOPHIL: 0%
  EOSINOPHIL: 0.5%
  ERYTHROCYTE COUNT: 5.46 x10E6/uL
  HEMATOCRIT: 32.9%
  HEMOGLOBIN: 12.75 G/DL
  LEUKOCYTE COUNT: 13.28 x10E3/uL
  LYMPHOCYTE: 85.5%
  MEAN CORPUSCULAR HEMOGLOBIN: 23.43 pg
  MEAN CORPUSCULAR HEMOGLOBIN CONCENTRATION: 38.82 G/DL
  MEAN CORPUSCULAR VOLUME: 60.37 fL
  MONOCYTE: 2.17%
  NEUTROPHIL: 11.83%
  NUCLEATED RED BLOOD CELLS: 0 /100WBC
  PLATELET COUNT: 1336.17 x10E3/uL
  ALANINE AMINOTRANSFERASE: 90.83 u/L
  ALKALINE PHOSPHATASE: 504.17 u/L
  ASPARTATE AMINOTRANSFERASE: 94.83 u/L
  BLOOD UREA NITROGEN: 12.17 mg/dL
  CARBON DIOXIDE: 31.17 mmol/L
  CHLORIDE: 101.17 MEQ/L
  CHOLESTEROL: 60.5 mg/dL
  CREATINE PHOSPHOKINASE: 391.67 u/L
  CREATININE: 0.29 mg/dL
  GLUCOSE: 135.67 mg/dL
  LACTATE DEHYDROGENASE: 275.5 u/L
  LIPASE: 12 u/L
  PHOSPHORUS: 9.5 mg/dL
  POTASSIUM: 5.98 MEQ/L
  SODIUM: 142.85 MEQ/L
  TOTAL BILIRUBIN: 0.22 mg/dL
  TOTAL PROTEIN: 6.58 G/DL
  URIC ACID: 0.87 mg/dL

From ChEMBL document CHEMBL3885881, “DrugMatrix”
